{"source": "the NIST ThermoML archive (doi:10.1021/je300533r)", "assay": "refractive index (Na D-line) (dimensionless); wn = mass fraction of the nth substance listed", "conditions": "298.15 K, 101 kPa, Liquid, Standard Abbe refractometry", "note": "Where “and” joins values, the source holds several entries; their conditions need not be identical. Identical values can stand only once. Numbers after ± are expanded uncertainties."}
{"molecule": "CC(C)(C)O", "note": "[2-methylpropan-2-ol] + O", "values": [{"measurement": "refractive index", "setting": "w1 = 0.0971", "result": "1.3426 ± 0.0008"}]}
{"molecule": "CCC(C)O", "note": "(stereo unspecified) [butan-2-ol] + O", "values": [{"measurement": "refractive index", "setting": "w1 = 0.0982", "result": "1.3431 ± 0.0008"}]}
{"molecule": "O=C([O-])[C@H](O)[C@@H](O)C(=O)[O-].[Na+].[Na+]", "note": "[disodium L-tartrate] + O", "values": [{"measurement": "refractive index", "setting": "w1 = 0.0401", "result": "1.3393 ± 0.0008"}, {"measurement": "refractive index", "setting": "w1 = 0.0452", "result": "1.3404 ± 0.0008"}, {"measurement": "refractive index", "setting": "w1 = 0.0472", "result": "1.34 ± 0.0008 and 1.3403 ± 0.0008"}]}
{"molecule": "CCCO", "note": "[propan-1-ol] + O", "values": [{"measurement": "refractive index", "setting": "w1 = 0.0949", "result": "1.3413 ± 0.0008"}]}
